The record followed here is publication PMC12000418, “Ubiquitin is directly linked via an ester to protein-conjugated mono-ADP-ribose” (The EMBO Journal, 2025).

pIC50: −log10 of the molar value.

One assay deals with T1, DTX2 (Homo sapiens, UniProt Q86UW9).
T1 construct: RING-DTC domain, residues 389–622; with UBE2D3~Ub conjugate
Nature of the assay: In vitro ubiquitylation of NAD+ ([…]) by purified DTX2 and E2~Ub, silver-stained gel. It counts as biochemical.

For a further assay, the target named is T2, PARP10 (Homo sapiens, UniProt Q53GL7).
T2 construct: GFP-PARP10, doxycycline-inducible in HEK 293 cells
T2 sequence (Q53GL7 1-1025): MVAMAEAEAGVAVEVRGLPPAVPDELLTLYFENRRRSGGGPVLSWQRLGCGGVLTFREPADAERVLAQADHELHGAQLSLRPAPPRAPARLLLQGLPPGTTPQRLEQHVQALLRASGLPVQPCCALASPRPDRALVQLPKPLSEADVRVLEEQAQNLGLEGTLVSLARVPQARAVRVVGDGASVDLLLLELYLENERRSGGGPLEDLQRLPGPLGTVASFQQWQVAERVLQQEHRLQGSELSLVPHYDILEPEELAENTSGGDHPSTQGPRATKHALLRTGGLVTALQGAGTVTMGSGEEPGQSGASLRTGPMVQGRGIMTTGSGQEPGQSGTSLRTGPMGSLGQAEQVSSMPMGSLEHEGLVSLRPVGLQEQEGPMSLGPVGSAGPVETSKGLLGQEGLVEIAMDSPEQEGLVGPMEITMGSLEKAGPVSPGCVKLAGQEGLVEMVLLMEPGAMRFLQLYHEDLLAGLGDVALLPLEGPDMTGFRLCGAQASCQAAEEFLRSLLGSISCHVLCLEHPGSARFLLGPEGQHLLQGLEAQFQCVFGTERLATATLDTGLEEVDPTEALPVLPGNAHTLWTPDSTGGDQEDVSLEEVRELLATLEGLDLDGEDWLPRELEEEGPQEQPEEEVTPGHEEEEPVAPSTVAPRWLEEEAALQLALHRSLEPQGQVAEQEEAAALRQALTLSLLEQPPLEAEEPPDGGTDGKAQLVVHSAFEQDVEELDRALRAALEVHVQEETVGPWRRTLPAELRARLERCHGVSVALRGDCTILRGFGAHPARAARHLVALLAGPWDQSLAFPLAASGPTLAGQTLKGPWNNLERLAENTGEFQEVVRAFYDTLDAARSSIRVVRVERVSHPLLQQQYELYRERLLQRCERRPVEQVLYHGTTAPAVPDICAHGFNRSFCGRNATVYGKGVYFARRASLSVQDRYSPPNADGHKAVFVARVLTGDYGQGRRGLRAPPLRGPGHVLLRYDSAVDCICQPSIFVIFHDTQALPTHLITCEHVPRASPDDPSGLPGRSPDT
Briefly: Dose-response inhibition of GFP-PARP10 auto-MARylation in HEK […] cells, western blot. Type of assay: cell-based.

T1 sequence (Q86UW9 389-622): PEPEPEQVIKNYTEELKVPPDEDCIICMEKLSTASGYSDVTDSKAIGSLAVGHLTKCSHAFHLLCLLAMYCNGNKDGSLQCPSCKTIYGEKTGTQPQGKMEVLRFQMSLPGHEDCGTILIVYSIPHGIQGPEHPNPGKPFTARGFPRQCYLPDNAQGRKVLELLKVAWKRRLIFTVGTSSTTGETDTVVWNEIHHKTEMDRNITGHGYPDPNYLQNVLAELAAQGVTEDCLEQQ
T1 sequence (P61077 whole entry partner, the tested form may be a part): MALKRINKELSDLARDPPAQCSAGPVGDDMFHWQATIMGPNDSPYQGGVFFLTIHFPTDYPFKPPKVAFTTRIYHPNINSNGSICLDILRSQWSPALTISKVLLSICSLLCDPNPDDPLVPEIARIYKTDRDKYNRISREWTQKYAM

In the case of `NC(=O)c1ccc[n+]([C@@H]2O[C@H](COP(=O)([O-])OP(=O)(O)OC[C@H]3O[C@@H](n4cnc5c(N)ncnc54)[C@H](O)[C@@H]3O)[C@@H](O)[C@H]2O)c1` [NAD^+], the “In vitro ubiquitylation of NAD+ (0.2 mM) by purified DTX2 and E2~Ub, silver-stai” value on DTX2 was “DTX2 could readily conjugate Ub to NAD^+ and ADPr to form Ub ester-linked NAD^+ (NAD^+-Ube)”. On to RBN010860, for which the negative logarithm of the IC50 (pIC50) at PARP10 is 7.29.
